Measured values: patent US11618747B2, “LXR modulators with bicyclic core moiety” (OrsoBio, Inc., priority 2018, dated 2023)

How the values were obtained:
[1] = molecular target: T1, LXRβ ligand-binding domain (Homo sapiens, UniProt P55055, DUP175-175); assay: TR-FRETβ activity assay (NCoA3 coactivator peptide recruitment); format: biochemical; details: TR-FRET, 1 μM 24(S)-25-epoxycholesterol prestimulation; read-out: FRETβ (EC50 range)
T1 construct: amino acids 156-461; NP009052; made in house; host or cells: E. coli
T1 sequence (P55055 with tags, fused parts or gaps DUP175-175 limits assumed): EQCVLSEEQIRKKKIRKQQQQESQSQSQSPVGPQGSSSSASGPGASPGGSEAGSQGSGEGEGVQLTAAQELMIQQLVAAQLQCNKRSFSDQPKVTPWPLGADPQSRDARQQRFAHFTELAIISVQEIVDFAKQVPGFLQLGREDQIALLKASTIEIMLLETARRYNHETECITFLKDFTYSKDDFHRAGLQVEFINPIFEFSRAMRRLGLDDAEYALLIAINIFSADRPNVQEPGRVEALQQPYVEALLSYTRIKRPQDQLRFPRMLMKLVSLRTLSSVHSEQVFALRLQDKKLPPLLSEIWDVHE
Summary of the method: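 Inverse agonism assessed by loss of coactivator recruitment, read as TR-FRET 665/615 nm after 1 h equilibration at 4 °C, in triplicate. Ten-point titration from 50 μM to 0.002 μM against LXRβ LBD (76 nM, GST fusion) prestimulated with 1 μM 24(S)-25-epoxycholesterol, with 400 nM NCoA3 peptide, pH 6.8. Sulfonyl acetic acids kept as 20 mM DMSO stocks with 100 mM TFA.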

[2] = molecular target: T2, ligand-binding domain (LBD) of LXRβ (Homo sapiens, UniProt P55055, DUP175-175); assay: LXR Gal4 reporter transient transfection assay (LBD-M2H Gal4β); format: cell-based; details: HEK293 cells, LXRβ LBD; read-out: LBD-M2H Gal4β (EC50 range)
T2 construct: LXRβ (amino acids 156-461); expressed in transfected cells; host or cells: HEK293
T2 sequence (P55055 with tags, fused parts or gaps DUP175-175 limits assumed): T1 sequence (P55055 with tags, fused parts or gaps DUP175-175 limits assumed)
Procedure: The tested compounds were usually dissolved, tested and stored as 20 mM stock solutions in DMSO. Since sulfonyl acetic acid derivatives tend to decarboxylate under these conditions, these stock solutions were prepared, tested and stored as 20 mM DMSO stock solutions containing 100 mM trifluoroacetic Acid (5 equivalents). Sulfonyl acetic acid derivatives are shelf stable as solid at rt for long time as reported by Griesbrecht et al. (Synlett 2010:374) or Faucher et al. (J. Med. Chem. 2004; 47:18).
LXR Gal4 Reporter Transient Transfection Assays
LXRα and LXRβ activity status was determined via detection of interaction with coactivator and corepressor proteins in mammalian two-hybrid experiments (M2H). For this, via transient transfection the full length (FL) proteins of LXRα (amino acids 1-447; NP005684; SEQ ID NO:1) or LXRβ-(amino acids 1-461; NP009052; SEQ ID NO:2) or the ligand-binding domains (LBD) of LXRα (amino acids 155-447 SEQ ID NO:3) or LXRβ (amino acids 156-461; SEQ ID NO:4) were expressed from pCMV-AD (Stratagene) as fusions to the transcriptional activation domain of NFkB. As cofactors, domains of either the steroid receptor coactivator 1 (SRC1; amino acids 552-887; SEQ ID NO:5) or of the corepressor NCoR (amino acids 1906-2312; NP006302; SEQ ID NO:6) were expressed as fusions to the DNA binding domain of the yeast transcription factor GAL4 (from pCMV-BD; Stratagene). Interaction was monitored via activation of a coexpressed Firefly Luciferase Reporter gene under control of a promoter containing repetitive GAL4 response elements (vector pFRLuc; Stratagene). Transfection efficiency was controlled via cotransfection of constitutively active pRL-CMV Renila reniformis luciferase reporter (Promega). HEK293 cells were grown in minimum essential medium (MEM) with 2 mM L-glutamine and Earle's balanced salt solution supplemented with 8.3% fetal bovine serum, 0.1 mM non-essential amino acids, 1 mM sodium pyruvate, at 37° C. in 5% CO2. 3.5×10^4 cells/well were plated in 96-well cell culture plates in growth medium supplemented with 8.3% fetal bovine serum for 16-20 h to ˜90% confluency. For transfection, medium was taken off and LXR and cofactor expressing plasmids as well as the reporter plasmids are added in 30 μL OPTIMEM/well including polyethylene-imine (PEI) as vehicle. Typical amounts of plasmids transfected/well: pCMV-AD-LXR (5 ng), pCMV-BD-cofactor (5 ng), pFR-Luc (100 ng), pRL-CMV (0.5 ng). Compound stocks were prepared in DMSO, prediluted in MEM to a total volume of 120 μL, and added 4 h after addition of the transfection mixture (final vehicle concentration not exceeding 0.2%). Cells were incubated for additional 16 h, lysed for 10 min in 1× Passive Lysis Buffer (Promega) and Firefly and Renilla luciferase activities were measured sequentially in the same cell extract using buffers containing D-luciferine and coelenterazine, respectively. Measurements of luminescence were done in a BMG-luminometer.

With Cc1ccc(S(=O)(=O)n2c(-c3cccc(C4CC4C(=O)O)c3)c(-c3ccsc3C#N)c3ccccc32)cc1 (racemic) [Example 30, rac-(1R,2R)-2-(3-(3-(2-Cyanothiophen-3-yl)-1-tosyl-1H-indol-2-yl)phenyl)cyclopropane-1-carboxylic Acid] the EC50 [1] was 100 to 1000 nM and the EC50 [2] was less than 100 nM.
In the case of Cc1cccc(S(=O)(=O)n2c(-c3cccc(N4CC(C(=O)O)C4)c3)c(-c3ccsc3C#N)c3cc(F)ccc32)c1 [3/8], the EC50 [1] is reported as 1000 to 10000 nM and the EC50 [2] is reported as less than 100 nM.
With COc1ccc(S(=O)(=O)n2c(-c3ccc(CCC(=O)O)cc3)c(-c3ccsc3C#N)c3ccccc32)cc1 [15/6] the EC50 [1] was 1000 to 10000 nM and the EC50 [2] was 100 to 1000 nM.
Work on COc1ccc(S(=O)(=O)n2c(-c3cccs3)c(-c3ccsc3C#N)c3ccccc32)cc1 [20/14] yielded an EC50 [1] of 100 to 1000 nM and an EC50 [2] of less than 100 nM.
For COC(=O)CCc1ccc(S(=O)(=O)n2c(-c3cccs3)c(-c3ccsc3C#N)c3ccccc32)cc1 [20/15], the EC50 [1] was 100 to 1000 nM and the EC50 [2] was 100 to 1000 nM.
With COc1ccc(S(=O)(=O)n2c(-c3ccccc3)c(-c3cc4ccccc4nc3C#N)c3ccccc32)cc1 [20/17] the EC50 [2] was 100 to 1000 nM.
For N#Cc1sccc1-c1c(-c2cccs2)n(S(=O)(=O)c2ccc(CCC(=O)O)cc2)c2ccccc12 [23/1], the EC50 [1] was 1000 to 10000 nM and the EC50 [2] was less than 100 nM.
Compound N#Cc1sccc1-c1c(-c2cccs2)n(S(=O)(=O)c2ccc(Cl)cc2)c2ccc(O)cc12 [Example 13, 3-(1-((4-Chlorophenyl)sulfonyl)-5-hydroxy-2-(thiophen-2-yl)-1t-indol-3-yl)thiophene-2-carbonitrile] has an EC50 [1] of 100 to 1000 nM and an EC50 [2] of less than 100 nM.
In the case of N#Cc1sccc1-c1c(-c2cccs2)n(S(=O)(=O)c2ccc(Cl)cc2)c2ccc(OCC(=O)O)cc12 [Example 15, 2-((1-((4-Chlorophenyl)sulfonyl)-3-(2-cyanothiophen-3-yl)-2-(thiophen-2-yl)-1H-indol-5-yl)oxy)acetic Acid], the EC50 [1] is reported as greater than 10000 nM and the EC50 [2] is reported as greater than 10000 nM.
With N#Cc1sccc1-c1c(-c2cccs2)n(S(=O)(=O)c2ccc(Cl)cc2)c2cc(CCC(=O)O)c(O)cc12 [Example 17, 3-(1-((4-Chlorophenyl)sulfonyl)-3-(2-cyanothiophen-3-yl)-5-hydroxy-2-(thiophen-2-yl)-1H-indol-6-yl)propanoic Acid] the EC50 [1] was greater than 10000 nM and the EC50 [2] was 1000 to 10000 nM.
O=S(=O)(c1ccc(Cl)cc1)n1c(-c2cccs2)c(-c2ccsc2Cl)c2ccccc21 [Example 20, 1-((4-Chlorophenyl)sulfonyl)-3-(2-chlorothiophen-3-yl)-2-(thiophen-2-yl)-1H-indole] was tested, and the EC50 [1] was 100 to 1000 nM and the EC50 [2] was less than 100 nM.
With O=C(O)c1sccc1-c1c(-c2cccs2)n(S(=O)(=O)c2ccc(Cl)cc2)c2ccccc12 [Example 21, 3-(1-((4-Chlorophenyl)sulfonyl)-2-(thiophen-2-yl)-1H-indol-3-yl)thiophene-2-carboxylic Acid] the EC50 [1] was greater than 10000 nM and the EC50 [2] was 1000 to 10000 nM.
For N#Cc1sccc1-c1c(-c2cccs2)n(S(=O)(=O)c2ccc(Cl)cc2)c2ccc(C(=O)O)cc12 [Example 23, 1-((4-Chlorophenyl)sulfonyl)-3-(2-cyanothiophen-3-yl)-2-(thiophen-2-yl)-1H-indole-5-carboxylic Acid], the EC50 [1] was greater than 10000 nM and the EC50 [2] was 100 to 1000 nM.
For N#Cc1sccc1-c1c(-c2cncs2)n(S(=O)(=O)c2ccc(Cl)cc2)c2ccccc12 [Example 25], the EC50 [1] was 1000 to 10000 nM and the EC50 [2] was less than 100 nM.
In the case of N#Cc1sccc1-c1c(-c2ccccc2)n(S(=O)(=O)c2ccc(OCC(=O)O)cc2)c2ccccc12 [Example 27, 2-(4-((3-(2-Cyanothiophen-3-yl)-2-phenyl-1-H-indol-1-yl)sulfonyl)phenoxy)acetic Acid], the EC50 [1] is reported as 1000 to 10000 nM and the EC50 [2] is reported as 100 to 1000 nM.
COc1ccc(S(=O)(=O)n2c(-c3ccc(CCC(N)=O)cc3)c(-c3ccsc3C#N)c3ccccc32)cc1 [Example 28, 3-(4-(3-(2-Cyanothiophen-3-yl)-1-((4-methoxyphenyl)sulfonyl)-1H-indol-2-yl)phenyl)propan-amide] was tested, and the EC50 [1] was 1000 to 10000 nM and the EC50 [2] was 100 to 1000 nM.
